Consider 2 molecules from US20120010296A1, “TREATING VARIOUS DISORDERS WITH CATECHOL-O-METHYL-TRANSFERASE INHIBITORS” (priority 2009, published 2012).

Format in all cases: in vivo, human
The subject of data set [1] is kleptomania. Nature of the data set: Example 3: case report, treatment of kleptomania (K-SAS, stealing behavior). Conditions: one patient. An excerpt: Patient was a married, college-educated person with no children. They presented for psychiatric evaluation for “out-of-control” shoplifting that had been going on since early adulthood. Although never arrested for their shoplifting, they reported stealing approximately 90% of the times when they went shopping. […] They denied wanting or needing the items and in fact usually discarded them in the trash when they returned home. They reported that when they initially stole items in early adulthood the act gave them a “rush” or a thrill. Over the years, they described the behavior as “automatic” and without awareness for the consequences.
The diagnosis of kleptomania was confirmed using the Structured Clinical Interview for Kleptomania. Patient also underwent a comprehensive psychiatric evaluation using the Structured Clinical Interview for DSM-IV (SCID-I and SCID-II). […] Severity of kleptomania was assessed using the Kleptomania Symptom Assessment Scale (K-SAS) at baseline and periodically through […] follow-up. The K-SAS score at baseline was 28 (moderate severity).
(§1) Over a period of two years, patient underwent serial trials of several medications. […] “I have gone to stores several times without stealing anything.” After 6 weeks, the benefit seemed to wane and their dose was increased to 100 mg po bid. […] They have been maintained on that dose for 5 months without stealing. They report mild urges to steal when in a store but feels able to control their behavior. Patient's K-SAS score has consistently been 6-8 over the last few months.

Data set [2] deals with pathological gambling. Put plainly: Example 1: open-label tolcapone study in pathological gambling (PG-YBOCS). An excerpt:
The effectiveness of COMT inhibitors to treat PG can be determined using known assessments, e.g., the Clinical Global Impression Scale (CGI), Yale Brown Obsessive Compulsive Scale Modified for Pathological Gambling (PG-YBOCS), the Gambling Symptom Assessment Scale (G-SAS), the Sheehan Disability Scale (SDS), the Hamilton Anxiety Rating Scale (HAM-A), the Hamilton Depression Rating Scale (HAM-D), the Perceived Stress Scale (PSS; used at baseline and study endpoint), and the Quality of Life Inventory (QOLI; used at baseline and study endpoint). In example 1, six subjects have been enrolled in a study to determine the effects of administration of the COMT inhibitor tolcapone on gambling. Subjects receive 100 mg-300 mg of tolcapone by mouth per day for 8 weeks, which can be administered either once per day for the 100 mg dose, or multiple (e.g., 3) times per day for higher doses (e.g., 300 mg dose). Five of the 6 (83%) subjects have “responded” (i.e., greater than 35% on the primary outcome measure, the PG-YBOCS) to tolcapone. In most open-label studies of pathological gambling, response rates are approximately 65%. Decrease in gambling symptoms was from a mean of 20.4 to 8.0 at endpoint using the PG-YBOCS. This compares to a mean decrease of 6 points on this same scale when used in treatment studies involving other medications. The mean effective dose was 140 mg/day.

In data set [3] the test system is pathological gambling. Put plainly: Example 1 / Tolcapone Study: cognitive tasks (IED set shift, SST) before and after treatment. From the text: The cognitive tasks require subjects to disengage responding from the previously correct dimension in favor of responding to a novel dimension. Failure on the task may be due to the inability of the individual to disengage from a previously rewarding process thus perseverating on the incorrect response pattern.

The subject of data set [4] is pathological gambling. Put plainly: Example 2: tolcapone study in pathological gambling, primary and secondary measures. From the text:
The effectiveness of COMT inhibitors to treat PG can be determined using known assessments, e.g., the Clinical Global Impression Scale (CGI), Yale Brown Obsessive Compulsive Scale Modified for Pathological Gambling (PG-YBOCS), the Gambling Symptom Assessment Scale (G-SAS), the Sheehan Disability Scale (SDS), the Hamilton Anxiety Rating Scale (HAM-A), the Hamilton Depression Rating Scale (HAM-D), the Perceived Stress Scale (PSS; used at baseline and study endpoint), and the Quality of Life Inventory (QOLI; used at baseline and study endpoint). In Example 2, twelve subjects have been enrolled with four of these individuals currently receiving tolcapone and yet to complete the study. […] In most open-label studies of pathological gambling, response rates are approximately 60-65%. Decrease in gambling symptoms was from a mean of 20.4 to 9.25 at endpoint using the PG-YBOCS. This compares to a mean decrease of 6 points on this same scale when used in treatment studies involving other medications.

Data set [5] relates to nicotine dependent problem gambling subjects. Put plainly: Change in cigarette smoking in nicotine dependent problem gambling subjects taking tolcapone. Conditions: 10-Week Endpoint (n = 6); baseline 25.8 ± 11.1.
For data set [6], the system named is pathological gambling. Nature of the data set: Example 2: performance on cognitive tasks (IDED, SST) in pathological gamblers treated with tolcapone. From the text: The cognitive tasks require subjects to disengage responding from the previously correct dimension in favor of responding to a novel dimension. Failure on the ED task may be due to the inability of the individual to disengage from a previously rewarding process thus perseverating on the incorrect response pattern.

Data set [7] is described as follows: Example 3: laboratory testing of liver aminotransferases every two weeks. Conditions: one patient. The procedure:
as §1

The subject of data set [8] is attention deficit disorder (ADD). Put plainly: Example 4: case report, treatment of ADD. As to conditions: one patient. Here is the method:
Patient was a married, person, currently in nursing school. They have had life-long difficulties with organizing tasks, following through on instructions and completing tasks. Learning in classes and performing school work has been extremely difficult. Patient would tell each and every teacher that they have attention deficit disorder (ADD), they are slow to understand and that they need more time to complete examinations. Patient has been taking methylphenidate ([…]) 10 mg twice a day to cope with these difficulties. […] Patient said “I was able to answer 12 out of 12 questions, that was the first time for me.” After one week, patient increased tolcapone does to 100 mg twice a day. […] They found themself organizing future tasks in orderly manner and also completing the tasks mush more efficiently, something they just have not been able to do prior to now. Their spouse noticed this and commented this to them. […] Patient is much satisfied with the results of the tolcapone treatment. Follow-up interview two weeks post tolcapone 100 mg twice a day: “I got over my classes at 3:[…]/ I stayed '[…] just fired off this assignment. I met all objectives. I got 15 out of 15 points. This has never happened to me before. Prior to tolcapone, I would scramble, hodge-podge, . . . I would just give up. The whole thing is getting better and better. I feel that I can organize things better now.” “Look what my teacher wrote, 'very well organized'.” 30 out of 30, 27 out of 27 points! “I never got these assignments done. I can't explain it but this is phenomenal.” “I am sleeping better now, my anxiety has gone down, I have more energy now.” This is a patient who had been on methylphenidate 10 mg twice a day.

On to `CC1(C)O[C@@H]2[C@@H](CO[C@@]3(COS(N)(=O)=O)OC(C)(C)O[C@@H]23)O1` [Topiramate, topiramate], for which the “K-SAS score (urges to steal)” value in data set [1] (monotherapy, 12 weeks at 150 mg/day, baseline 28) is given as 21.
Regarding `Cc1ccc(C(=O)c2cc(O)c(O)c([N+](=O)[O-])c2)cc1` [tolcapone], the mean effective dose in data set [2] (Example 1, pathological gambling) is listed as 140 mg/day; in data set [4] (Example 2, pathological gambling, compared to 600 mg/day used for Parkinson's), 141 mg/day. For the same molecule, the “subjects who responded (greater than 35% on the primary outcome measure, the PG-YBOCS)” value came out at 83% in data set [2] (Example 1, 100 mg-300 mg per day by mouth for 8 weeks, five of the 6 subjects) and 87.5% in data set [4] (Example 2, seven of 8 subjects who have completed the study). The “PG-YBOCS mean at endpoint (decrease in gambling symptoms)” value worked out at 8.0 in data set [2] (Example 1, from a baseline mean of 20.4) and 9.25 in data set [4] (Example 2, from a baseline mean of 20.4). Also, the “PG-YBOCS, Mean ± SD at EOS” value in data set [2] (whole group analysis, after treatment (EOS), baseline 21.5 + 3.11) was 10.25 ± 6.18. In addition, the “IED Total errors (stage 6), ID shift, Mean ± SD at EOS” value in data set [3] (EOS, baseline 0.5 ± 1) is recorded as 0 ± 0. Moreover, in data set [3] (EOS, baseline 2.75 ± 4.27), the “SST Direction errors on stop and go trials, Mean ± SD at EOS” value is given as 6.5 ± 11.03. Besides, the “IED Total errors (stage 8), ED shift, Mean ± SD at EOS” value in data set [3] (EOS, baseline 6.75 ± 5.91) is reported as 3.5 ± 4.51. In addition, the “IED Stages completed, Mean ± SD at EOS” value in data set [3] (EOS, baseline 9 ± 0) is recorded as 9 ± 0. The “IED Total errors (adjusted), Mean ± SD at EOS” value in data set [3] (EOS, baseline 12.75 ± 6.5) stood at 17 ± 7.16. Besides, the “IED Total errors, Mean ± SD at EOS” value in data set [3] (EOS, baseline 12.75 ± 6.5) turned out to be 17 ± 7.16. For the same molecule, the “SST Median correct RT on GO trials, Mean ± SD at EOS” value in data set [3] (EOS, baseline 530.5 ± 132.91) is reported as 529 ± 155.66. Also, the “extradimensional set shift task (cognitive measures)” value is recorded as “significant improvement” in data set [3] (Example 1) and “significant improvement” in data set [6] (Example 2, neurocognitive results). Also, the “CGI-Improvement (Investigator), mean (SD) at endpoint” value in data set [4] (endpoint) is 1.88 (0.83). The “CGI-Improvement (Patient), mean (SD) at endpoint” value in data set [4] (endpoint) is 2.19 (1.13). In data set [4] (endpoint, baseline 4.38 (0.74), p-value 0.0098), the “Clinical Global Impression Severity, mean (SD) at endpoint” value is reported as 3 (1.07). The “HAM-A, mean (SD) at endpoint” value in data set [4] (endpoint, baseline 8.88 (3.14), p-value 0.052) is 5.63 (2.97). Further, in data set [4] (endpoint, baseline 9 (2.67), p-value 0.033), the “HAM-D, mean (SD) at endpoint” value is 5.63 (3.02). For the same molecule, the “PG-YBOCS behavior Subscale score, mean (SD) at endpoint” value in data set [4] (endpoint, baseline 9.63 (3.2), p-value 0.0003) is 3.63 (3.96). The “PG-YBOCS urges/thought subscale score, mean (SD) at endpoint” value in data set [4] (endpoint, baseline 10.88 (2.23), p-value 0.0003) is given as 5.38 (2.33). In data set [4] (endpoint, baseline 16.75 (6.84), p-value 0.003), the “Sheehan Disability Scale total score, mean (SD) at endpoint” value is 5.38 (5.90). For the same molecule, the “PG-YBOCS total score, mean (SD) at endpoint” value in data set [4] (endpoint, baseline 20.5 (3.38), p-value 0.0002) is reported as 9.25 (5.3). In addition, the “G-SAS total score, mean (SD) at endpoint” value in data set [4] (endpoint, baseline 27.13 (7.54), p-value 0.045) was 18.63 (7.91). Further, the “Cigarettes smoked per day (mean ± SD)” value in data set [5] worked out at 3.3 ± 8.2. In addition, the “SST directional errors at endpoint” value in data set [6] (endpoint, baseline 2 ± 3.07) was determined as 4.71 ± 8.24. In addition, the “IDED Stages completed at endpoint” value in data set [6] (endpoint, baseline 8.5 ± 0.92) is 8.86 ± 0.38. Further, the “IDED total errors (adjusted) at endpoint” value in data set [6] (endpoint, baseline 26.38 ± 21.84) is 20.14 ± 11.77. Moreover, the “SST SSRT at endpoint” value in data set [6] (endpoint, baseline 149.8 ± 41.57) is given as 161.37 ± 29.11. The “SST median go reaction time at endpoint” value in data set [6] (endpoint, baseline 470.5 ± 111.67, in ms (unit assumed)) was found to be 476.64 ± 138.11. The stealing behavior entry is listed as “no stealing behavior” in data set [1] (100 mg po bid, after 3 weeks on the higher dose, maintained for 5 months without stealing) and “significant reductions in stealing behavior” in data set [1] (100 mg/day monotherapy, after 3 weeks). Further, in data set [1] (100 mg po bid, over the last few months, baseline 28 (moderate severity)), the K-SAS score is given as 6-8. The “changes in alanine aminotransferase or aspartate aminotranferase” value in data set [7] was “no changes”. In addition, the “ADD symptoms reported by the patient” value in data set [8] (100 mg in the morning, added to methylphenidate 10 mg twice a day) was “improved sense of well-being”; in data set [8] (100 mg twice a day), “further improvement in their symptoms”. Moreover, the side effects result in data set [8] (100 mg twice a day) was “no side effects”. In data set [8] (chose to stay on tolcapone instead of methylphenidate), the “attentional issues, compared with methylphenidate” value is given as “works better for their attentional issues”.
